In ChEMBL document CHEMBL3507680, “University of Dundee, Gates Library screen for HepG2 cell viability”:

Test: Human HepG2 cell viability assay in 384 well format
Format: toxicity, cell-based
Set-up: dose 125 nL, time 70.5 hour; concentration not given beside the values
Settings: HepG2 cells, read-out: Inhibition
Compound `O=C(O)[C@@H]1CN(C(=O)CCc2ccccn2)C[C@H]1c1ccccc1` has a cytotoxicity at 70.5 h of -4.59%.
With `COCC(=O)N1CCCCC1c1nc(N(C)C)ncc1-c1cc(C)no1` (stereo not given) the cytotoxicity at 70.5 h was 21.1%.
With `Cc1ccc(NC(=O)C2=CN=S=N2)cc1` the cytotoxicity at 70.5 h was 18.8%.
With `CN(Cc1ccc([S+](C)[O-])cc1)c1ccc(Br)cn1` (stereo not given) the cytotoxicity at 70.5 h was -0.515%.
`Cc1noc(C2CCCN(C(=O)c3ccc(Br)cc3F)C2)n1` (stereo not given) gave a cytotoxicity at 70.5 h of -7.35%.
Compound `Cc1cc(C)nc(C2CCN(C(=O)CCn3nnc4ccccc43)C2)n1` (stereo not given) has a cytotoxicity at 70.5 h of -6.12%.
`CCn1nc(C)c(CCNC(=O)C2CCCN(C(=O)N(C)C)C2)c1C` (stereo not given) gave a cytotoxicity at 70.5 h of -11.9%.
Work on `Cc1cccc(C(=O)NCCNS(=O)(=O)c2cccs2)c1C` yielded a cytotoxicity at 70.5 h of -5.88%.
`Cn1c2c(c(=O)c3ccccc31)CCC(C)(C)O2` gave a cytotoxicity at 70.5 h of -9.34%.
For `Cc1ccc(CNC(=O)Nc2nnc(C3CC3)s2)n1C`, the cytotoxicity at 70.5 h was -0.672%.
Compound `O=C(CC1CCCC1)N1CCOC(c2nc(-c3ncccn3)no2)C1` (stereo not given) has a cytotoxicity at 70.5 h of -1.63%.
In the case of `Cc1cc(C(=O)N2CCCC2Cn2nc(C)cc2C)on1` (stereo not given), the cytotoxicity at 70.5 h is reported as 1.85%.
With `CCCN1CCC(N2CCN(c3cc(C)nc(C)c3)CC2)CC1` the cytotoxicity at 70.5 h was 5.6%.
Compound `c1ccc(C2Cn3ccnc3CN2Cc2ncc[nH]2)cc1` (stereo not given) has a cytotoxicity at 70.5 h of -1.58%.
For `CN(C)c1ncccc1CNC(=O)N1CCCC1CN1CCCC1` (stereo not given), the cytotoxicity at 70.5 h was 24.9%.
Work on `CCS(=O)(=O)NC[C@]12COC[C@H]1CN(Cc1sccc1C)C2` yielded a cytotoxicity at 70.5 h of -0.717%.
Compound `COc1cccc(CN2C[C@H]3CC[C@H]2C3)c1OCCN1CCOCC1` has a cytotoxicity at 70.5 h of -2.04%.
In the case of `Cc1nc(CCN)cc(N2CCOc3ccc(Cl)cc3C2)n1`, the cytotoxicity at 70.5 h is reported as -5.61%.
Compound `CCCc1nnc(N2CCC(C3CCN(C)CC3)CC2)o1` has a cytotoxicity at 70.5 h of 9.11%.
For `COCCn1c(C(=O)NCc2n[nH]c(C)n2)cc2ccccc21`, the cytotoxicity at 70.5 h was -0.294%.
`CNC(=O)C1(CCCc2cnccn2)CCN1Cc1ccc(C)cc1` (stereo not given) gave a cytotoxicity at 70.5 h of -5.64%.
With `Cn1cc2c(n1)C(CNC1CCOCC1)OCC2` (stereo not given) the cytotoxicity at 70.5 h was -5.41%.
`Cc1cc(C)n(C2CN(CC(=O)N(C)Cc3cnn(C)c3)C2)n1` showed a cytotoxicity at 70.5 h of -7%.
Compound `O=c1c2ccccc2nc2n1C(CSc1ccc(Br)cc1)CN2` (stereo not given) has a cytotoxicity at 70.5 h of 0.264%.
`CCN1CCNC(=O)C12CCN(S(=O)(=O)c1ccc(F)cc1)CC2` showed a cytotoxicity at 70.5 h of 0.587%.
`CCn1cc(C(=O)N2CCCC(c3noc(C)n3)C2)cn1` (stereo not given) gave a cytotoxicity at 70.5 h of -2.74%.
`O=C(CC1CC1)NCc1cn2c(n1)CN(CC1CC1)CC2` showed a cytotoxicity at 70.5 h of -19.5%.
`COc1ccccc1C(=O)NS(=O)(=O)c1cncc(Br)c1` showed a cytotoxicity at 70.5 h of 9.9%.
`Cc1nn(C)c(Cl)c1C1CCCN1C(=O)c1ccoc1C` (stereo not given) showed a cytotoxicity at 70.5 h of -4.13%.
With `c1cnc(N2CCOC3(CCCN(c4cnccn4)C3)C2)nc1` (stereo not given) the cytotoxicity at 70.5 h was -8.79%.
Work on `CC1CCCN(C(=O)c2ccn(COc3ccccc3)n2)C1` (stereo not given) yielded a cytotoxicity at 70.5 h of 12.9%.
With `Cc1nc(CCCC(=O)Nc2cccc(N3CCNC3=O)c2)cs1` the cytotoxicity at 70.5 h was 0.608%.
`CN1CC(c2ccccc2)CC12CCN(C(=O)c1ccc(F)cc1)CC2` (stereo not given) gave a cytotoxicity at 70.5 h of -4.24%.
`O=C(c1cccnc1)N1CCN2C(=O)N(Cc3ccc(F)cc3)C[C@H]2C1` gave a cytotoxicity at 70.5 h of 9.22%.
For `CS(=O)(=O)CCCC(=O)Nc1cc(-c2cccc(F)c2F)n[nH]1`, the cytotoxicity at 70.5 h was -16.7%.
In the case of `Cc1cccc(N2CCN(C(=O)CN3CCN(CCO)CC3)CC2)c1`, the cytotoxicity at 70.5 h is reported as 0.659%.
With `c1cncc(-c2ncnc3c2CCN(Cc2cccs2)CC3)c1` the cytotoxicity at 70.5 h was 16.4%.
Work on `C[C@@H]1CN(CCc2ccccc2)C[C@]12CCN(CC(=O)N(C)C)C2=O` yielded a cytotoxicity at 70.5 h of -12.6%.
Work on `O=C(NCC1CC1)[C@@H]1CC[C@@H]2[C@@H](CCN2Cc2ccc(F)c(F)c2)O1` yielded a cytotoxicity at 70.5 h of 2.42%.
Compound `CO[C@@H]1CC[C@H]2[C@H]1OCCN2C(=O)C1=CCCC1` has a cytotoxicity at 70.5 h of -20.1%.
`Cc1ccc(NC(=O)N2CCN(C(=O)CC3CCCC3)CC2)s1` showed a cytotoxicity at 70.5 h of -10.2%.
For `CC(C)c1nc2n(n1)CC(Nc1ncnc3ccccc13)CC2` (stereo not given), the cytotoxicity at 70.5 h was -13%.
`O=C(C1CCN(Cc2nc(-c3ccco3)no2)CC1)N1CCCC1` gave a cytotoxicity at 70.5 h of -4.18%.
In the case of `Cn1c2c(ccc1=O)CCN(Cc1ccoc1)CC2`, the cytotoxicity at 70.5 h is reported as 4.43%.
With `CC(C)c1cc(NC(=O)CN2CCc3c(nc(C(C)C)n3C)C2)on1` the cytotoxicity at 70.5 h was -15%.
